The results in this text go back to DBAASP.

Some test systems named below: Bacillus subtilis; Escherichia coli JW0013; Escherichia coli UB1005.
Assay in all cases: ≥ marks a high value that may be exact or a test limit, other limits are often not marked, values filed in µg/mL are converted to µM
Test [1] concerns Pseudomonas aeruginosa Ps4.
The subject of test [2] is Staphylococcus aureus ATCC 33591.
Test [3] relates to Escherichia coli ATCC 25922.
Test [4] relates to Pseudomonas aeruginosa ATCC 27853.
Test [5] deals with Staphylococcus aureus ATCC 25923.
Test [6] has as its system Candida albicans ATCC 2002.
Test [7] concerns Staphylococcus aureus ATCC 2592.
The subject of test [8] is Pseudomonas aeruginosa PAO1.

Values after ≈ are worked out from the molar mass of the structure shown.

A word on the MIC: it is the lowest concentration that inhibits growth of the organism. A lower MIC goes with inhibition by little substance.

`CC[C@H](C)[C@H](NC(=O)[C@H](CC(N)=O)NC(=O)[C@H](CCCN=C(N)N)NC(=O)[C@H](CCC(N)=O)NC(=O)[C@H](Cc1c[nH]c2ccccc12)NC(=O)[C@@H](N)Cc1ccccc1)C(=O)N[C@@H](CCCN=C(N)N)C(=O)N[C@@H](CCCCN)C(=O)N[C@@H](CC(C)C)C(=O)N[C@@H](CCCN=C(N)N)C(N)=O` [FWQRNIRKLR]: the MIC in test [1] is not below 176 µM.
`CC[C@H](C)[C@H](NC(=O)[C@H](CCCCN)NC(=O)[C@H](CCCN=C(N)N)NC(=O)[C@@H](NC(=O)[C@H](CC(N)=O)NC(=O)[C@H](CCCN=C(N)N)NC(=O)[C@H](CCC(N)=O)NC(=O)[C@H](Cc1c[nH]c2ccccc12)NC(=O)[C@@H](N)Cc1ccccc1)[C@@H](C)CC)C(=O)N[C@@H](CCCN=C(N)N)C(N)=O` [FWQRNIRKIR] registered a minimum inhibitory concentration (MIC) in test [1] not below 176 µM.
Regarding `NC(=O)[C@H](CCCN=C(N)N)NC(=O)[C@H](CCCN=C(N)N)NC(=O)[C@@H]1CCCN1C(=O)[C@H](CCCN=C(N)N)NC(=O)[C@H](CCCN=C(N)N)NC(=O)[C@H](CCCN=C(N)N)NC(=O)[C@H](Cc1c[nH]c2ccccc12)NC(=O)[C@H](CCCN=C(N)N)NC(=O)[C@H](CCCN=C(N)N)NC(=O)[C@H](CCCN=C(N)N)NC(=O)[C@H](CCCN=C(N)N)NC(=O)[C@H](CCCN=C(N)N)NC(=O)[C@H](Cc1c[nH]c2ccccc12)NC(=O)[C@H](CCCN=C(N)N)NC(=O)[C@H](CCCN=C(N)N)NC(=O)[C@H](Cc1ccc(O)cc1)NC(=O)[C@H](CCCN=C(N)N)NC(=O)[C@H](CCCN=C(N)N)NC(=O)[C@H](CCCN=C(N)N)NC(=O)[C@@H](N)Cc1c[nH]c2ccccc12` [WRRRYRRWRRRRRWRRRPRR], the minimum inhibitory concentration (MIC) in [2] came to 1.56 µM (≈ 4.96 µg/mL); in test [3], 3.13 µM (≈ 9.95 µg/mL); in test [4], 3.13 µM (≈ 9.95 µg/mL); in test [5], 1.56 µM (≈ 4.96 µg/mL).
Take `CC[C@H](C)[C@@H]1NC(=O)[C@H](CO)NC(=O)[C@H](CCCCN)NC(=O)[C@H]([C@@H](C)O)NC(=O)[C@H](Cc2c[nH]c3ccccc23)NC(=O)[C@@H](NC(=O)CNC(=O)[C@H](CCCCN)NC(=O)[C@@H](N)CC(C)C)CSSC[C@@H](C(=O)N[C@@H](Cc2ccccc2)C(=O)O)NC(=O)[C@@H]2CCCN2C(=O)[C@H](CCCCN)NC(=O)[C@@H]2CCCN2C(=O)[C@@H]2CCCN2C1=O` [LKGCWTKSIPPKPCF]: the MIC in test [6] was 2.75 µM (≈ 4.68 µg/mL); in test [7] it was 1.03 µM (≈ 1.76 µg/mL); in test [3], 1.37 µM (≈ 2.34 µg/mL); in the test with Bacillus subtilis it was 1.37 µM (≈ 2.34 µg/mL).
Turning to `CC[C@H](C)[C@H](NC(=O)[C@H](CCCN=C(N)N)NC(=O)[C@H](CCCN=C(N)N)NC(=O)[C@@H]1CCCN1C(=O)[C@@H]1CCCN1C(=O)[C@H](CCCN=C(N)N)NC(=O)[C@@H]1CCCN1C(=O)[C@H](CCCN=C(N)N)NC(=O)[C@@H]1CCCN1C(=O)[C@H](CC(C)C)NC(=O)[C@H](CCCN=C(N)N)NC(=O)[C@H](Cc1cnc[nH]1)NC(=O)[C@H](CCCN=C(N)N)NC(=O)[C@H](CCCCN)NC(=O)[C@H](CC(=O)O)NC(=O)[C@@H](N)C(C)C)C(=O)N[C@@H](Cc1ccc(O)cc1)C(=O)N[C@@H](CC(N)=O)C(=O)N[C@@H](CCCN=C(N)N)C(N)=O` [VDKRHRLPRPRPPRRIYNR], the MIC against Escherichia coli JW0013 was found to be 0.524 µM (≈ 1.3 µg/mL).
With `CC[C@H](C)[C@H](NC(=O)[C@H](CC(N)=O)NC(=O)[C@H](CCCN=C(N)N)NC(=O)[C@H](C)NC(=O)[C@H](Cc1c[nH]c2ccccc12)NC(=O)[C@@H](NC(=O)[C@@H](N)Cc1ccccc1)C(C)C)C(=O)N[C@@H](CCCN=C(N)N)C(=O)N[C@@H](CCCCN)C(=O)N[C@H](C(=O)N[C@@H](CCCN=C(N)N)C(N)=O)C(C)C` [FVWARNIRKVR], in test [1], the minimum inhibitory concentration (MIC) was not below 173 µM.
In turn, `CC[C@H](C)[C@H](NC(=O)[C@H](CCCN=C(N)N)NC(=O)[C@H](CCCN=C(N)N)NC(=O)[C@@H]1CCCN1C(=O)[C@@H]1CCCN1C(=O)[C@H](CCCN=C(N)N)NC(=O)[C@@H]1CCCN1C(=O)[C@H](CCCN=C(N)N)NC(=O)[C@@H]1CCCN1C(=O)[C@H](CC(C)C)NC(=O)[C@H](Cc1ccc(O)cc1)NC(=O)[C@@H]1CCCN1C(=O)[C@H](CC(=O)O)NC(=O)[C@H](CCCCN)NC(=O)[C@H](CC(=O)O)NC(=O)[C@@H](N)C(C)C)C(=O)N[C@@H](Cc1ccc(O)cc1)C(=O)N[C@@H](CC(N)=O)C(=O)N[C@@H](CCCN=C(N)N)C(N)=O` [VDKDPYLPRPRPPRRIYNR] gave an MIC with Escherichia coli JW0013 of 1.99 µM (≈ 4.8 µg/mL).
Still for that read-out and setting: then `CC[C@H](C)[C@H](NC(=O)[C@H](CCCN=C(N)N)NC(=O)[C@H](CCCN=C(N)N)NC(=O)[C@@H]1CCCN1C(=O)[C@@H]1CCCN1C(=O)[C@H](CCCN=C(N)N)NC(=O)[C@@H]1CCCN1C(=O)[C@H](CCCN=C(N)N)NC(=O)[C@@H]1CCCN1C(=O)[C@H](CC(C)C)NC(=O)[C@H](CCCN=C(N)N)NC(=O)[C@@H]1CCCN1C(=O)[C@@H]1CCCN1C(=O)[C@H](CCCCN)NC(=O)[C@H](CC(=O)O)NC(=O)[C@@H](N)C(C)C)C(=O)N[C@@H](Cc1ccc(O)cc1)C(=O)N[C@@H](CC(N)=O)C(=O)N[C@@H](CCCN=C(N)N)C(N)=O` [VDKPPRLPRPRPPRRIYNR], with 1.38 µM (≈ 3.3 µg/mL).
For `CC[C@H](C)[C@H](NC(=O)[C@H](CCCN=C(N)N)NC(=O)[C@@H](NC(=O)[C@H](CC(N)=O)NC(=O)[C@H](CCCN=C(N)N)NC(=O)CNC(=O)[C@H](Cc1c[nH]c2ccccc12)NC(=O)[C@@H](N)Cc1ccccc1)[C@@H](C)CC)C(=O)N[C@@H](CCCN=C(N)N)C(=O)N[C@@H](CCCN=C(N)N)C(N)=O` [FWGRNIRIRR], the MIC in test [1] was not below 182 µM.
On to `CC[C@H](C)[C@H](NC(=O)[C@H](CC(C)C)NC(=O)[C@H](CC(=O)O)NC(=O)[C@H](CCC(N)=O)NC(=O)[C@H](CCC(N)=O)NC(=O)[C@H](CC(C)C)NC(=O)[C@H](CCC(=O)O)NC(=O)[C@@H]1CCCN1C(=O)[C@@H](N)Cc1ccc(O)cc1)C(=O)N[C@@H](C)C(=O)N[C@@H](CCCN=C(N)N)C(=O)N[C@@H](CC(C)C)C(=O)N[C@@H](CC(C)C)C(=O)O` [YPELQQDLIARLL], for which the MIC was found to be 15.9 µM (≈ 25 µg/mL) in test [6], 4.01 µM (≈ 6.3 µg/mL) in [7], 31.8 µM (≈ 50 µg/mL) in [3] and 1.97 µM (≈ 3.1 µg/mL) against Bacillus subtilis.
Take `CC[C@H](C)[C@H](NC(=O)[C@H](CCCN=C(N)N)NC(=O)[C@H](CCCN=C(N)N)NC(=O)[C@@H]1CCCN1C(=O)[C@@H]1CCCN1C(=O)[C@H](CCCN=C(N)N)NC(=O)[C@@H]1CCCN1C(=O)[C@H](CCCN=C(N)N)NC(=O)[C@@H]1CCCN1C(=O)[C@H](CC(C)C)NC(=O)[C@H](CCCCN)NC(=O)[C@@H]1CCCN1C(=O)[C@@H]1CCCN1C(=O)[C@H](CCCCN)NC(=O)[C@H](CC(=O)O)NC(=O)[C@@H](N)C(C)C)C(=O)N[C@@H](Cc1ccc(O)cc1)C(=O)N[C@@H](CC(N)=O)C(=O)N[C@@H](CCCN=C(N)N)C(N)=O` [VDKPPKLPRPRPPRRIYNR]: in the test with Escherichia coli JW0013, the MIC stood at 2.04 µM (≈ 4.8 µg/mL).
For the compound `NC(=O)CC[C@H](NC(=O)[C@H](Cc1c[nH]c2ccccc12)NC(=O)[C@@H](N)Cc1ccccc1)C(=O)N[C@@H](CCCN=C(N)N)C(=O)N[C@@H](CC(N)=O)C(=O)N[C@@H](Cc1c[nH]c2ccccc12)C(=O)N[C@@H](CCCN=C(N)N)C(=O)N[C@@H](Cc1ccccc1)C(=O)N[C@@H](CCCN=C(N)N)C(=O)N[C@@H](CCCN=C(N)N)C(N)=O` [FWQRNWRFRR], the minimal inhibitory concentration (MIC) in [1] was not below 161 µM.
`CC[C@H](C)[C@H](NC(=O)[C@H](CCCN=C(N)N)NC(=O)[C@H](CCCN=C(N)N)NC(=O)[C@@H]1CCCN1C(=O)[C@@H]1CCCN1C(=O)[C@H](CCCN=C(N)N)NC(=O)[C@H](CCCN=C(N)N)NC(=O)[C@H](CCCN=C(N)N)NC(=O)[C@@H]1CCCN1C(=O)[C@H](CCCN=C(N)N)NC(=O)[C@H](Cc1ccc(O)cc1)NC(=O)[C@@H]1CCCN1C(=O)[C@H](CCCCN)NC(=O)[C@H](CCCCN)NC(=O)[C@H](CC(=O)O)NC(=O)[C@@H](N)C(C)C)C(=O)N[C@@H](Cc1ccc(O)cc1)C(=O)N[C@@H](CC(N)=O)C(=O)N[C@@H](CCCN=C(N)N)C(N)=O` [VDKKPYRPRRRPPRRIYNR]: the MIC with Escherichia coli JW0013 was 0.634 µM (≈ 1.6 µg/mL).
Turning to `CC[C@H](C)[C@H](NC(=O)CNC(=O)[C@H](CO)NC(=O)[C@H](CCCN=C(N)N)NC(=O)[C@@H](N)Cc1ccccc1)C(=O)N[C@@H](CC(C)C)C(=O)N[C@@H](CCCCN)C(=O)N[C@@H](CC(C)C)C(=O)N[C@@H](C)C(=O)N[C@@H](CO)C(=O)N[C@@H](CCCCN)C(=O)N[C@H](C(=O)N1CCC[C@H]1C(=O)N[C@@H](CO)C(=O)N[C@H](C(=O)N[C@@H](CC(C)C)C(=O)N[C@H]1CSSC[C@@H](C(=O)O)NC(=O)[C@H](CC(N)=O)NC(=O)[C@H](CCCCN)NC(=O)[C@H](CC(C)C)NC(=O)[C@H](C(C)C)NC(=O)[C@H](C)NC1=O)C(C)C)[C@@H](C)CC` [FRSGILKLASKIPSVLCAVLKNC], the MIC in test [6] was 10.2 µM (≈ 25 µg/mL); in test [7], 5.08 µM (≈ 12.5 µg/mL); in test [3], 20.3 µM (≈ 50 µg/mL); in the test on Bacillus subtilis, 20.3 µM (≈ 50 µg/mL).
For `CC[C@H](C)[C@H](NC(=O)[C@H](CCCN=C(N)N)NC(=O)[C@H](CCCN=C(N)N)NC(=O)[C@@H]1CCCN1C(=O)[C@@H]1CCCN1C(=O)[C@H](CCCN=C(N)N)NC(=O)[C@H](CCCN=C(N)N)NC(=O)[C@H](CCCN=C(N)N)NC(=O)[C@@H]1CCCN1C(=O)[C@H](CC(C)C)NC(=O)[C@H](Cc1ccc(O)cc1)NC(=O)[C@@H]1CCCN1C(=O)[C@@H]1CCCN1C(=O)[C@H](CCCCN)NC(=O)[C@H](CC(=O)O)NC(=O)[C@@H](N)C(C)C)C(=O)N[C@@H](Cc1ccc(O)cc1)C(=O)N[C@@H](CC(N)=O)C(=O)N[C@@H](CCCN=C(N)N)C(N)=O` [VDKPPYLPRRRPPRRIYNR], the minimal inhibitory concentration (MIC) stood at 26.1 µM (≈ 64 µg/mL) in test [8], 2.04 µM (≈ 5 µg/mL) against Escherichia coli UB1005, 6.53 µM (≈ 16 µg/mL) in [5] and 0.98 µM (≈ 2.4 µg/mL) in the test with Escherichia coli JW0013.
